Reference: US20120065123A1, “Synthetic Antibodies” (priority 2009, published 2012)
One block for each substance: values may come before it. Bridges are numbered along the chain shown (N, C = ends). Roman numbers before positions name the chains, in order. Where no end group is shown, it is not given here. The star is where a group is joined. StBu = CC(C)(C)S*

What was measured:
pooled human transferrin = biological target: T1, pooled human transferrin (Homo sapiens, UniProt P02787); experiment: High throughput SPR screening of peptides (Biacore A-100); type: binding; details: purified peptide, several concentrations; read-out: KD with respect to transferrin
T1 construct: purchased Sigma
Procedure: Peptide affinity element candidates were screened against target proteins immobilized on the SPR surface. Each target protein was modified with biotin using the following procedure: NHS-LC-LC-Biotin (Pierce Biotechnology) was re-suspended in DMSO at a concentration of 7.13 mM. Each protein was prepared in 100 mM PBS pH 7.5 at a concentration of ˜50 μM. NHS-LC-LC-Biotin was then added to the protein solution at a 3:1 or 5:1 molar ratio. The reaction was performed for 2 hours at room temperature and the protein sample was analyzed by MALDI mass spectrometry to determine the number of biotin molecules added per molecule of protein. Excess NHS-LC-LC-Biotin was removed using a 3 kDa spin filter. The target proteins for which data is shown in this example were pooled human transferrin (Sigma) and purified bovine ubiquitin.
A Biacore A-100 Surface Plasmon Resonance (SPR) system was used to measure the binding response of each peptide to several different target proteins immobilized on a gold surface. […] Each biotinylated protein was injected over a single spot and the amount of protein captured was measured. […]
Data analysis was performed using the A-100 Evaluation software package that analyzes and filters the data using a variety of measures of quality control for each sensorgram. […] In this manner a relative measure of the specificity of binding for each peptide was determined. […]

Transferrin [1] = biological target: T2, Transferrin (Homo sapiens, UniProt P02787); experiment: SPR analysis of peptide pairs for binding to distinct sites on target; details: peptides applied in 1:1 mixtures in pairs
Text: The transferrin target was immobilized on a Biacore T100 SPR chip, and candidate polypeptides were applied in 1:1 mixtures in pairs and response data obtained, in accordance with the methods described in Example 4 above. As illustrated in FIGS. 12A-D, upon flowing candidate polypeptides over the immobilized target, ideally one polypeptide applied alone would bind to a first binding site on the target and produce a first characteristic SPR response level (FIG. 12A), the other polypeptide would bind to a second, distinct binding site on the target, producing a second characteristic response level (FIG. 12B), and a mixture of the two polypeptides together (at the same concentrations as before) would produce a response level approximating the sum of the response levels produced by each polypeptide alone, as the polypeptides bind to distinct binding sites (FIG. 12C).

Transferrin [2] = biological target: T2, Transferrin; experiment: Peptide microarray ranking, labeled transferrin with E. coli lysate competitor; type: binding
Procedure: Several polypeptides were identified as candidate affinity elements for synbodies against an arbitrarily chosen protein target, transferrin, by incubating transferrin on the polypeptide microarray in the presence of E. coli lysate competitor. Transferrin was randomly direct-labeled at free amines with Alexa™ 555, and E. coli lysate was randomly direct-labeled at free amines with Alexa™ 647. Three replicate arrays were passivized by applying a mixture of BSA and mercaptohexanol for one hour. The arrays were blocked with unlabelled E. coli lysate for one hour, then washed three times with TBST (0.05% Tween) followed by three times with water. A mixture of labeled transferrin and labeled E. coli lysate was applied to the three replicate arrays and incubated for three hours. The arrays were again washed three times with TBST (0.05% Tween) followed by three times with water, and scanned at 555 nm and 647 nm using an array reader. Polypeptides were ranked as candidates for inclusion as affinity elements of synbodies by computing a score for each polypeptide equal to the mean raw 555 nm intensity over the six replicate features, squared, divided by the mean raw 647 nm intensity over the six replicate features. This simple scoring function tends to favor candidate polypeptides that bind at least moderate affinity, since otherwise the 555 nm intensity would be relatively lower, and that are relatively specific, since otherwise the 647 nm intensity would be relatively higher and contribute to a relatively lower score. Many variations of this ranking and identification process can be used, such as, by way of non-limiting examples, two-color comparisons against other competitors; comparisons with data taken in separate experiments with respect to other targets; and use of scoring functions taking into account other factors, employing other functional relationships, and/or involving statistical analysis and/or preprocessing of data and/or correcting for background fluorescence and/or other factors affecting the accuracy of the measured intensities. Ten polypeptides (Table 1) were identified for further evaluation for use as affinity elements in synbodies by choosing the polypeptides having the highest score (one polypeptide was rejected as difficult to synthesize, so the polypeptides chosen were ten of those having the eleven highest scores).
After preparation of the array in accordance with the methods previously described in Example 2, the array was washed one time for five minutes in 7.33% acetonitrile, 37% isopropanol, 0.55% trifluoroacetic acid, and 55% water. Alexa 555 labeled target protein transferrin was applied, together with Alexa 647 labeled E. coli lysate competitor, to the prewashed array and to an identical array without organic prewash. […] 5,010 on the array without organic prewash, but ranked no. 9601 on the prewashed array. Conversely, peptide TRF-21, shown by SPR analysis to be a relatively strong binder of transferrin, rose in rank from 84 on the non-prewashed array to rank no. 5 on the prewashed array.

Transferrin [3] = biological target: T2, Transferrin; experiment: SPR solution phase KD of candidate affinity elements, transferrin immobilized (Biacore T100); type: binding; details: steady-state response, 25° C., PBST
Procedure: Transferrin 25 μg/ml in immobilization buffer selected for correct pH was then applied 302 at a flow rate of 5 to 10 μl/min for a contact time of about 5 to 10 minutes, allowing the amine functionality on the transferrin 308 to displace the activated NHS ester and bond to the surface via an amide bond. Finally, ethylene diamine (1M ethylene diamine-HCl at pH 8.5) was applied 304 at a flow rate of 5 to 10 μl/min for a contact time of about 6 to 7 minutes to deactivate any remaining reactive groups on the dextran chip surface. Flow rates and contact times are adjusted as necessary to provide the surface concentration of target desired for the intended application, and may vary by target. In general, for evaluating whether binding occurs, it is preferable to immobilize a relatively large quantity of target, and higher flow rates and/or longer contact times may be used. For determining kinetics, it is preferable to limit the amount of target immobilized so as to minimize rebinding and avidity effects, and lower flow rates and/or contact times may be used.
Candidate affinity elements for the transferrin synbody TRF19, TRF21, TRF23, TRF24, TRF25, and TRF26 were individually evaluated for solution phase KD with respect to transferrin by SPR analysis. Because the off rates for these polypeptides were very high, KD values were estimated by measuring steady-state response for at least five concentrations in a two-fold dilution series, each concentration tested in duplicate. For each experiment, response data were processed using a reference surface to correct for bulk refractive index changes and any non-specific binding. Data were also double referenced using responses from blank running buffer injections. Each experiment was conducted at 25° C. using PBST (0.01M Phosphate Buffered Saline, 0.138M NaCl, 0.0027M KCl, 0.05% surfactant Tween20, pH 7.4) as the running buffer on a Biacore T100 instrument. Analytes were injected for 60 s at a flow rate of 30 μl/min. The antigen surfaces were regenerated with 30 s consecutive pulses of NaOH/NaCl (50 mM NaOH in 1M NaCl) and Glycine (10 mM glycine-HCl, pH 2.5).

[4] = system: 8,000 human proteins (GST fusion); experiment: Protein microarray screen (Invitrogen Protoarray Human Protein Microarray, 8,000 features); type: binding; details: fluorescence intensity
Procedure: Two biotinylated anti-TRF synbodies (SYN23-26 and SYN 21-22) were applied to a protein microarray having 8,000 features (Invitrogen Protoarray Human Protein Microarray v. 4.0 for immune response biomarker profiling), each feature comprising a distinct human protein (GST fusion) adsorbed to a nitrocellulose coated slide. Application of the synbodies to the microarray was performed in accordance with manufacturer instructions: (see ProtoArray Human Protein Microarray, Invitrogen, Catalog no. PAH052401, Version B, 15 Dec. 2006, 25-0970, Users Manual.) After blocking the array with 1% BSA/PBS/0.1% Tween for 1 hour at 4C with gentle shaking, 120 μl of probing buffer (1×PBS, 5 mM mgCl2, 0.5 mM DTT, 0.05% Triton X-100, 5% glycerol, 1% BSA) with synbody was applied to the array. The prescribed cover slip was placed over the array and adjusted to remove air bubbles. The array was incubated in a 50 ml conical tube, printed side up, for 1.5 hours at 4C without shaking. The array was then removed from the conical tube inserted diagonally into the array chamber, kept on ice. 8 ml probing buffer was added to the chamber wall. The cover slip was removed and the array was incubated in probing buffer for 1 minute on ice. […] The array was dried in the dark for 60 minutes at room temperature, after which it was scanned using a fluorescent microarray scanner and data was taken and analyzed.

[5] = biological target: Tumor Necrosis Factor-alpha (TNF-α) (Homo sapiens, UniProt P01375); experiment: Chromatographic affinity screening on protein-coupled pipette tips with MALDI readout; type: binding; details: 500 nM each synbody in E. Coli Lysate
Procedure: The target proteins, Transferrin (TRF) and Tumor Necrosis Factor-alpha (TNF-α), were each covalently attached to pipette tips (one protein per pipette tip) containing carboxymethyl dextran matrix (Intrinsic Bioprobes, Tempe, Ariz.) using standard amine coupling chemistry. The unmodified tips were first washed with 0.5 M HCl followed by acetone. Each tip was activated using a 50 mg/mL solution of […] (CDI) in N-methyl-pyrolidone (NMP). Each tip was washed with NMP to remove excess CDI. Each protein was prepared as a 50 μg/mL solution in 100 mM sodium acetate pH 5.0 and cycled through a CDI activated tip for 30 minutes. Un-reacted CDI in the tip was then quenched with the addition of 1.5 M ethanolamine pH 8.5 and then washed extensively with HBS-N buffer. The protein-coupled tips were then stored in HBS-N buffer at 4° C. Negative control tips were prepared in the same manner except that no protein was added to the sodium acetate solution during the protein coupling step.
A library of 14 candidate synbodies (Table 9) was prepared by making 12 μM stock solutions in 1× phosphate buffered saline (PBS) of each HPLC purified synbody and […] of each stock solution was added to 600 μL of E. Coli Lysate that had been treated with a protease inhibitor. Thus the final concentration of each synbody was 500 nM.
A negative control pipette tip (blank tip), a TRF tip, and a TNF-α tip, were washed with 0.1% sodium dodecyl sulfate (SDS) to remove any non-covalently bound protein and then washed with HBS buffer. The tips were then incubated for 15 minutes in 150 μL of the synbody library. Each tip was then washed 5 times in 150 μL of HBS-N. This step was then repeated and each tip was washed 5 times in 150 μL of 0.25 M NaCl. Each tip was then washed 5 times in 150 μL of Milli-Q water and this step was repeated. […]
Each elution sample was spotted onto a MALDI plate and analyzed in reflectron mode on a Bruker Daltonics UltraFlex III TOF/TOF MALDI Mass Spectrometer.

TNF-α = TNF-α (Homo sapiens, UniProt P01375); experiment: SPR verification of candidate TNF-α binding synbodies (Biacore T-100); details: 1.25 μM to 9.8 nM
Procedure: Candidate TNF-α binding synbodies were screened by surface plasmon resonance (SPR) on a Biacore T-100 SPR instrument to verify binding for TNF-α. A CM5 chip was activated using standard amine coupling chemistry and TNF-α was immobilized. Each synbody was prepared in HBS-N buffer with excess carboxymethyl dextran added to the running buffer to minimize non-specific binding to the chip surface. A concentration series of each synbody was prepared where the concentrations ranged from 1.25 μM to 9.8 nM.

T2 sequence (P02787 20-698): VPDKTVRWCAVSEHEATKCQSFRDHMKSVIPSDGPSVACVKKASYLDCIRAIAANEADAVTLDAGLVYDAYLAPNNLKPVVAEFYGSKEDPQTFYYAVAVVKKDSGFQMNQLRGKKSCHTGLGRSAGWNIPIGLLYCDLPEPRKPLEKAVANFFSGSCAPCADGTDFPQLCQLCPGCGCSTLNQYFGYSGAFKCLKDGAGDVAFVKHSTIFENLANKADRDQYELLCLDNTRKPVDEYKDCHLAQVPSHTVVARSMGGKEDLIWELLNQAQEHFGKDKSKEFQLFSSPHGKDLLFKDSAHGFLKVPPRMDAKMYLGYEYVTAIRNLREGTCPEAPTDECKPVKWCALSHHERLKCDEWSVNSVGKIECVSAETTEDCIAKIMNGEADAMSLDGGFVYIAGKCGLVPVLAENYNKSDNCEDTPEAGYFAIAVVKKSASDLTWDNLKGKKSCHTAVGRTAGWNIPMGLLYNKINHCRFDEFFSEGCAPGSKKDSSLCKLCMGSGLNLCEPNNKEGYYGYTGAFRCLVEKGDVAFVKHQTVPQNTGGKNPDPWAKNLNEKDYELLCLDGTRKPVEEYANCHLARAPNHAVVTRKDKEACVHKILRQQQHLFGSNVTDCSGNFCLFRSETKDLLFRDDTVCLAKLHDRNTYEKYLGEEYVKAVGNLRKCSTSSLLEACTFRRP
Sequence of TNF-α (P01375 77-233 limits assumed, species assumed): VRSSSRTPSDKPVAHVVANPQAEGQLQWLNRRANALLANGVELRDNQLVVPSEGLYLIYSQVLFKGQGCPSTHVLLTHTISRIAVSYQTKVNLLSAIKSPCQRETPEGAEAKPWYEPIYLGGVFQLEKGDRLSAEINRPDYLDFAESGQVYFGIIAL
Sequence of Tumor Necrosis Factor-alpha (TNF-α) (P01375 77-233 limits assumed, species assumed): as above
T1 sequence (P02787 20-698): as the sequence (P02787 20-698) above

Substance: I: AHKVVPQRQIRHAYNRYGSGKC / II: FRGWAHIFFGPHVIYRGGSG (amide I:21-II:C) [SYN23-26]
highest affinity target from a library of 8,000 [4]: PCCA

Substance: TNF1-TNF4-KC-stBu: lysine-linked synbody (peptide 1 FMNYPIKVPILVVPIGRGSGKC(StBu); peptide 2 MKSIIPMSVAQHQGPIKGSG; not fully specified)
MALDI peak in TNF-α tip elution (retention by target) [5]: no peak was observed | binding to TNF-α (sensorgrams) (TNF-α): no binding

Substance: TNF1-TNF10-KC-stBu: lysine-linked synbody (peptide 1 FRGWAHIFFGPHVIYRGGSGKC(StBu); peptide 2 MKSIIPMSVAQHQGPIKGSG; not fully specified)
MALDI peak in TNF-α tip elution (retention by target) [5]: showed a peak | binding to TNF-α (sensorgrams) (TNF-α): relatively strong binding kinetics

The remaining lines, values ahead:

Kd (pooled human transferrin): 78.9 ± 27 µM
Substance: ARDLLIQKNSGQDVDHRGSC [TRF101]

binding to distinct sites on transferrin (Transferrin [1]): bind distinct sites on transferrin | Rank -- prewash (Transferrin [2]; array with organic prewash): 2091 | Rank - non-prewash (Transferrin [2]; array without organic prewash): 2722 | Kd (Transferrin [3]): ~50 µM
Substance: FRGWAHIFFGPHVIYRGGSC [TRF23]
